Patent US20130096055A1, “LONG-ACTING Y2 RECEPTOR AGONISTS” (Novo Nordisk A/S, priority 2009, published 2013)
Starred links: 1 amine or outer side, 2 acyl side, 3 side chain; linkers in the order of their positions; H or OH if unused. Groups on a side chain read outwards from the residue. No end group written: not given here. *: point of attachment. C18 diacid = O=C(O)CCCCCCCCCCCCCCCCC(=O)*; γGlu = O=C(O)[C@H](CCC(=O)[*:2])N[*:1]; AEEA = NCCOCCOCC(=O)O

T1: human Y5 receptor (Homo sapiens, UniProt Q15761)
T1 construct: expressed in transfected cells
T1 sequence (Q15761 1-445): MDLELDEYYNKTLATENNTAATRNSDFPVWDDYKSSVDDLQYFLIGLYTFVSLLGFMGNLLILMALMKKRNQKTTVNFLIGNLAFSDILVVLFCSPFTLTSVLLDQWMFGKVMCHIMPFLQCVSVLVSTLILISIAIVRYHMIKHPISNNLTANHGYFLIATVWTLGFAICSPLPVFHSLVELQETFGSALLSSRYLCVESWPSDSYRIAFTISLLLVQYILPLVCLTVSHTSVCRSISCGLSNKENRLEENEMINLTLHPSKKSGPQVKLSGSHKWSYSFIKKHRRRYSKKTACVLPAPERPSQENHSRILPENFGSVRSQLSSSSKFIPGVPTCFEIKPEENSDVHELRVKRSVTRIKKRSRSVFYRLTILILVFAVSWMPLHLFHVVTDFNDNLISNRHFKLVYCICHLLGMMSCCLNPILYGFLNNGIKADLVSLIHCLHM

T2: Y1 receptor (Homo sapiens, UniProt P25929)
T2 construct: expressed in transfected cells; host or cells: ACTOne HEK-293 cells
T2 sequence (P25929 1-384): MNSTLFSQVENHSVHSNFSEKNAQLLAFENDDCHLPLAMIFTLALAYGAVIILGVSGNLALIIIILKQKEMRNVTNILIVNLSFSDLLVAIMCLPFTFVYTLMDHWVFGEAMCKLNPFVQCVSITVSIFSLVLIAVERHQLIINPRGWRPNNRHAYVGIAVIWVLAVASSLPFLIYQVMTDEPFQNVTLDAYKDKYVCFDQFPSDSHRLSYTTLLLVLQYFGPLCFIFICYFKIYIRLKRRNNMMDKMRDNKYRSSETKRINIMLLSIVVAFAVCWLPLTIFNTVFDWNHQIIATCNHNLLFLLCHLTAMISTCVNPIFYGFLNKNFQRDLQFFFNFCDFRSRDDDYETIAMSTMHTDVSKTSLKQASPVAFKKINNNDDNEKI

T3: Y2 receptor (UniProt P49146 1-381, limits assumed)
T3 sequence (looked up): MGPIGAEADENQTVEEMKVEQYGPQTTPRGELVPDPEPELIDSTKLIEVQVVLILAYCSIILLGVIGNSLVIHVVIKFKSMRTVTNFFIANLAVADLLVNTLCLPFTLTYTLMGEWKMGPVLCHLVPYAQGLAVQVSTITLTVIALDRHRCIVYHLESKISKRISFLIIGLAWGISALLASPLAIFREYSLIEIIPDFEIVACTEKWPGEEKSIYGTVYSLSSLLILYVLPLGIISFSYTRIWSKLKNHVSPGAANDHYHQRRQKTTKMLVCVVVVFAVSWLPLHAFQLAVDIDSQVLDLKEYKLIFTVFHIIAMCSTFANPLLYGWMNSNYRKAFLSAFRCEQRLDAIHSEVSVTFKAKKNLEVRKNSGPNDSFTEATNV

T4: Y1 receptor (UniProt P25929 1-384, limits assumed)
T4 sequence (looked up): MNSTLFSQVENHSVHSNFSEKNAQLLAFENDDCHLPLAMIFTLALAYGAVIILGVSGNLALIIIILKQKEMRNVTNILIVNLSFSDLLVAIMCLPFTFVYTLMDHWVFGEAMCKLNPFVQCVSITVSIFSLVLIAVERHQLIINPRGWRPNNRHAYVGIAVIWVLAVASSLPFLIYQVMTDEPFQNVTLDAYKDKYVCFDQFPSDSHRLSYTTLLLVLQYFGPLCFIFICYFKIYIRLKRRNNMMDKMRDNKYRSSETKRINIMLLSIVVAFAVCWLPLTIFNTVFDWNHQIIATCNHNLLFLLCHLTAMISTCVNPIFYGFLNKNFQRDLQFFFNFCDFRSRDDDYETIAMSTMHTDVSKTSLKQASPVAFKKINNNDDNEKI

T5: human Y5 receptor (human, UniProt Q15761 1-445)
T5 sequence (looked up): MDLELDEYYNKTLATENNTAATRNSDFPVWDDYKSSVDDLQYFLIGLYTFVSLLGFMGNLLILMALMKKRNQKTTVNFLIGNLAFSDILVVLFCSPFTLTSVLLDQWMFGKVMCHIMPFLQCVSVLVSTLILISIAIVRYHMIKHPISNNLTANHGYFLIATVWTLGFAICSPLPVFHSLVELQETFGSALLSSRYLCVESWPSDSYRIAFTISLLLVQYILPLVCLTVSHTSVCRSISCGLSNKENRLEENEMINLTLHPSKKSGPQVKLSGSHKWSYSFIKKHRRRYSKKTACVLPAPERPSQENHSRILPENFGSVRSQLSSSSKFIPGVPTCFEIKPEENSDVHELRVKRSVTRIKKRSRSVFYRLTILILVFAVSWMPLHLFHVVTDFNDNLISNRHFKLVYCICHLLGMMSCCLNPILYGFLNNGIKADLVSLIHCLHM

B1: N-epsilon30[2-(2-{2-[2-(2-{2-[(S)-4-Carboxy-4-(17-carboxyheptadecanoylamino)butyrylamino]ethoxy}ethoxy)acetylamino]ethoxy}ethoxy)acetyl][Arg4,Glu18,Gln29,Lys30] … (peptide)
peptide: IRPEAPGEDASPEELERYYASLRHYLQK([AEEA-AEEA-γGlu-C18 diacid])VTRQRY-NH2

Assays:
[1] = biological target: T1, human Y5 receptor; assay: Assay (III) Y5 receptor IPOne potency assay; type: cell-based
[2] = biological target: T2, Y1 receptor; assay: Assay (II) Y1 receptor ACTOne potency assay; type: cell-based
Source text: ACTOne™ is an easily scaleable cAMP biosensor HTS platform for measurement of Gs and Gi coupled 7™ receptor signalling from BD Biosciences (San Jose, Calif.). The cells express a biosensor developed around a modified rat olfactory cyclic nucleotide gated (CNG) calcium channel—a fairly non-discriminatory ion channel that responds to cAMP and cGMP. The CNG has been engineered to be cAMP selective and thus function as a cAMP responsive biosensor that signals through calcium or membrane potential responsive dyes.

[3] = biological target: T3, Y2 receptor; assay: cell-based or functional assay
[4] = biological target: T4, Y1 receptor; assay: cell-based or functional assay
[5] = biological target: T5, human Y5 receptor; assay: cell-based or functional assay

| Molecule | EC50 [1] | Receptor potency Y5/Y2 ratio ([1]; ratio of Y5 (Assay III) to Y2 (Assay I) receptor potency) | EC50 [2] | Receptor potency Y1/Y2 ratio ([2]; ratio of Y1 (Assay II) to Y2 (Assay I) receptor potency) | Receptor potency Y2 (Assay (I), ACTOne) [3] | Receptor potency Y1 (Assay (II), ACTOne) [4] | Receptor potency Y5 (Assay (III), IPOne) [5] |
| --- | --- | --- | --- | --- | --- | --- | --- |
| CC[C@H](C)[C@H](N)C(=O)N[C@@H](CCCNC(=N)N)C(=O)N1CCC[C@H]1C(=O)N[C@@H](CCC(=O)O)C(=O)N[C@@H](C)C(=O)N1CCC[C@H]1C(=O)NCC(=O)N[C@@H](CCC(=O)O)C(=O)N[C@@H](CC(=O)O)C(=O)N[C@@H](C)C(=O)N[C@@H](CO)C(=O)N1CCC[C@H]1C(=O)N[C@@H](CCC(=O)O)C(=O)N[C@@H](CCC(=O)O)C(=O)N[C@@H](CC(C)C)C(=O)N[C@@H](CCC(=O)O)C(=O)N[C@@H](CCCNC(=N)N)C(=O)N[C@@H](Cc1ccc(O)cc1)C(=O)N[C@@H](Cc1ccc(O)cc1)C(=O)N[C@@H](C)C(=O)N[C@@H](CO)C(=O)N[C@@H](CC(C)C)C(=O)N[C@@H](CCCNC(=N)N)C(=O)N[C@@H](Cc1c[nH]cn1)C(=O)N[C@@H](Cc1ccc(O)cc1)C(=O)N[C@@H](CC(C)C)C(=O)N[C@@H](CCC(N)=O)C(=O)N[C@@H](CCCCNC(=O)COCCOCCNC(=O)COCCOCCNC(=O)CC[C@H](NC(=O)CCCCCCCCCCCCCCCCC(=O)O)C(=O)O)C(=O)N[C@H](C(=O)N[C@H](C(=O)N[C@@H](CCCNC(=N)N)C(=O)N[C@@H](CCC(N)=O)C(=O)N[C@@H](CCCNC(=N)N)C(=O)N[C@@H](Cc1ccc(O)cc1)C(N)=O)[C@@H](C)O)C(C)C [SEQ ID NO: 39, N-epsilon30[2-(2-{2-[2-(2-{2-[(S)-4-Carboxy-4-(17-carboxyheptadecanoylamino)butyrylamino]ethoxy}ethoxy)acetylamino]ethoxy}ethoxy)acetyl][Arg4,Glu18,Gln29,Lys30]hPYY(3-36)] | ≥ 1 µM | >3.6 | ≥ 1 µM | >3.6 | – | – | – |
| B1 | – | – | – | – | 0.274 µM | ≥ 1 µM | ≥ 1 µM |
